Data set [1] has as its system T1, angiotensin-converting enzyme (ACE).
T1 construct: purified angiotensin-converting enzyme (ACE) from rabbit lungs; purchased Sigma, St-Louis, Mo; host or cells: purified from rabbit lungs
Nature of the data set: Metabolic degradation by purified angiotensin-converting enzyme, HPLC analysis. Type of data set: in vitro ADME, rabbit. As to conditions: rabbit, isolated enzyme ace, pH 7.5. In outline:
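Purified rabbit lung ACE (45 μg/mL final) in PBS (50 mmol/L, pH 7.5, 300 mmol/L NaCl) was incubated with peptides at 37 °C; peptides were pre-incubated 5 min before enzyme addition and samples were boiled to stop the reaction. Percent kinin degradation after 30 min was quantified by C18 reverse-phase HPLC at 214 nm, with metabolites identified by electrospray MS.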

In data set [2] the target is T2, angiotensin-converting enzyme (ACE) from rabbit lungs (Oryctolagus cuniculus, UniProt P12822).
T2 sequence (P12822 34-1310): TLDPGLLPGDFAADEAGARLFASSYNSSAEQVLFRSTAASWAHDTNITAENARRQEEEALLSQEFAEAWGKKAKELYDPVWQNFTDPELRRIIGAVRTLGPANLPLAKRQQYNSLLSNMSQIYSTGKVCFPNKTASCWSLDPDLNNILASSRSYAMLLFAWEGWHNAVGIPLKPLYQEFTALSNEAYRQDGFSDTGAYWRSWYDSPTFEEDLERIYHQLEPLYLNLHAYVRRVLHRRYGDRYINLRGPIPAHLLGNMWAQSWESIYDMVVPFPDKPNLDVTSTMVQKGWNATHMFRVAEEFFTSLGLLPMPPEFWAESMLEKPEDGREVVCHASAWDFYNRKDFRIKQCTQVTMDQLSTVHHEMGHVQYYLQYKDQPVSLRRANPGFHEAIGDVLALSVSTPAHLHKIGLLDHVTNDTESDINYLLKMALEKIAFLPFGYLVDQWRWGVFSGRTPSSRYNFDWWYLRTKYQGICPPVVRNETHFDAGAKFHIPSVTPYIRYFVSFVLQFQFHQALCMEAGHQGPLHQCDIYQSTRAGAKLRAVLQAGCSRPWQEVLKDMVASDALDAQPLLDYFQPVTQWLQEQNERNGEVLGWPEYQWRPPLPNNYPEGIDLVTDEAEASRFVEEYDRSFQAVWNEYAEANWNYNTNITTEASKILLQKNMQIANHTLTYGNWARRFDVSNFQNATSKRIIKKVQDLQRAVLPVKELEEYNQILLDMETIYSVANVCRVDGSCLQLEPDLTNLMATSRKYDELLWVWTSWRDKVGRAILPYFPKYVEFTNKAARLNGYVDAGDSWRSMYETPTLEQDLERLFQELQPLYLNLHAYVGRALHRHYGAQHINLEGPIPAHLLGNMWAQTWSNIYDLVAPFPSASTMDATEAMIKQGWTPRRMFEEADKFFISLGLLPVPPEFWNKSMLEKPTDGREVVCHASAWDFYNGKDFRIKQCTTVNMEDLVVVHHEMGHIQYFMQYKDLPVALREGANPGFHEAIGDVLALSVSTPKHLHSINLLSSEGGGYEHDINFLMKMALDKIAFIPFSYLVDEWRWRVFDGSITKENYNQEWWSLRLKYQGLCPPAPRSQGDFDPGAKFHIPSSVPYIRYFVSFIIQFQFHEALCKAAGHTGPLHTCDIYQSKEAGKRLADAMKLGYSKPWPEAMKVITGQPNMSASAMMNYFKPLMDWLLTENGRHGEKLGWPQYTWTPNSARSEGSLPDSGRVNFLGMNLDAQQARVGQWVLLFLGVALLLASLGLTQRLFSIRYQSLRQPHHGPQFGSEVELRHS
The description is as above. Type of data set: in vitro ADME. Also on record: purified angiotensin-converting enzyme (ACE) from rabbit lungs; purchased Sigma, St-Louis, Mo; host or cells: purified from rabbit lungs. As to the method:
The metabolic stability of various kinin-related peptides was evaluated by incubating the peptide in the presence of purified angiotensin-converting enzyme (ACE) from rabbit lungs (purchased from Sigma, St-Louis, Mo.) dissolved in phosphate buffered saline (PBS) (50 mmol/L, pH 7.5 containing 300 mmoL/L NaCl); the final concentration of enzyme was 45 μg/mL. The experimental protocol for the measurement of ACE activity has been described elsewhere^15,16. Briefly, 200 μmol/L of peptides (40 μL) were placed in a PBS buffer and incubated for 5 min at 37EC before adding 8.5 μL of ACE (total volume of the reaction medium; 190 μL). Samples were withdrawn at 30 min intervals, immersed in boiling water for 5 min, then cooled on ice and centrifuged (5 min) before proceeding to analysis of peptides by high pressure liquid chromatography (HPLC). Results of ACE metabolism are expressed in percent of kinin degradation following the incubation (30 min) of kinin substrates with the enzyme.
Pure peptides and metabolic products were analysed by reverse-phas HPLC on a C18 μBondapak column (4.6 mm×25 cm) (Waters) of 10-μm particle size. The peptides and their fragments were eluted at the rate of 2.0 mL/min. with a linear gradient ranging from 5 to 65% of acetonitrile/TFA 0.05%/water over 20 min. at room temperature. The elution positions of these peptides were determined by following the absorbance at 214 nm. For each assay, 50 μL of the reaction medium (treated or not with ACE) were extracted and injected into the column. Concentrations of the peaks products, different from the peaks of the peptide substrate, were estimated using a computer software program (Baseline 810; Waters) that controlled also all the chromatography operations. Isolated metabolites and substrates were collected and identified by Electrospray mass spectrometry (positive mode).

Read-outs that look alike come from different tables or passages of the source. Non-standard residues stand in square brackets, D forms with d. Residues, ends and D or L forms follow the SMILES beside them. Tyr(3,5-I2) = N[C@@H](Cc1cc(I)c(O)c(I)c1)C(=O)O; d2Nal = N[C@H](Cc1ccc2ccccc2c1)C(=O)O; Ahx = NCCCCCC(=O)O; Sar = CNCC(=O)O

For the compound `CC[C@H](C)[C@H](NC(=O)[C@@H](Cc1ccc2ccccc2c1)NC(=O)[C@H](CO)NC(=O)[C@H](Cc1ccccc1)NC(=O)CNC(=O)[C@@H]1CCCN1C(=O)[C@@H]1CCCN1C(=O)[C@H](CCCNC(=N)N)NC(=O)[C@H](N)CCCCN)C(=O)O` [Compound 25, D-Lys(D-βNal^7, Ile^8)desArg^9BK] (H-[dK]RPPGFS[d2Nal]I-OH; N-terminus and C-terminus assumed), the metabolised at 0.5 h, 42.1 μmol/L in data set [1] worked out at 9 ± 2%. Further, the “Less susceptible to ACE proteolytic degradation, relative to Lys(Leu8)desArgBK” value (from here on “Less susceptible … relative to Lys(Leu8)desArgBK”) in data set [2] is listed as 2-5 times.
As to `CC[C@H](C)[C@H](NC(=O)[C@@H](Cc1ccc2ccccc2c1)NC(=O)[C@H](CO)NC(=O)[C@H](Cc1ccccc1)NC(=O)CNC(=O)[C@@H]1CCCN1C(=O)[C@@H]1CCCN1C(=O)[C@H](CCCNC(=N)N)NC(=O)CNC)C(=O)O` [Compound 26, Sar(D-βNal^7, Ile^8)desArg^9BK] (H-[Sar]RPPGFS[d2Nal]I-OH; N-terminus and C-terminus assumed), the metabolised at 0.5 h, 42.1 μmol/L in data set [1] (30 min incubation of peptide (200 μmol/L) with ACE, 37 C, read-out: ACE (% degradation)) is 0%. Moreover, the “Less susceptible … relative to Lys(Leu8)desArgBK” value in data set [2] is 2-5 times.
In the case of `CC(=O)N[C@@H](Cc1ccc(O)cc1)C(=O)NCCCCCC(=O)N[C@@H](CCCCN)C(=O)N[C@@H](CCCNC(=N)N)C(=O)N1CCC[C@H]1C(=O)N1CCC[C@H]1C(=O)NCC(=O)N[C@@H](Cc1ccccc1)C(=O)N[C@@H](CO)C(=O)N1CCC[C@H]1C(=O)N[C@@H](CC(C)C)C(=O)O` [Compound 27, AcTyrεAhxLys(Leu^8)desArg^9BK], the metabolised at 0.5 h, 42.1 μmol/L in data set [1] came to 52 ± 1%. Besides, in data set [2], the “Less susceptible … relative to Lys(Leu8)desArgBK” value is reported as 2-5 times.
In data set [1], `CNCC(=O)N[C@@H](Cc1ccc(O)cc1)C(=O)NCCCCCC(=O)N[C@@H](CCCCN)C(=O)N[C@@H](CCCNC(=N)N)C(=O)N1CCC[C@H]1C(=O)N1CCC[C@H]1C(=O)NCC(=O)N[C@@H](Cc1ccccc1)C(=O)N[C@@H](CO)C(=O)N1CCC[C@H]1C(=O)N[C@@H](CC(C)C)C(=O)O` [Compound 28, SarTyrεAhxLys(Leu^8)desArg^9BK] came in with a metabolised at 0.5 h, 42.1 μmol/L of 34 ± 3%. For the same compound, the “Less susceptible … relative to Lys(Leu8)desArgBK” value in data set [2] is 2-5 times.
The like results for `CC[C@H](C)[C@H](NC(=O)[C@@H](Cc1ccc2ccccc2c1)NC(=O)[C@H](CO)NC(=O)[C@H](Cc1ccccc1)NC(=O)CNC(=O)[C@@H]1CCCN1C(=O)[C@@H]1CCCN1C(=O)[C@H](CCCNC(=N)N)NC(=O)[C@H](CCCCN)NC(=O)CCCCCNC(=O)[C@H](Cc1ccc(O)cc1)NC(=O)CNC)C(=O)O` [Compound 29, SarTyrεAhxLys(D-βNal^7, Ile^8)desArg^9BK] (H-[Sar]Y[Ahx]KRPPGFS[d2Nal]I-OH; N-terminus and C-terminus assumed) were, in that order, 15 ± 1% and 2-5 times.
The like results for `CC[C@H](C)[C@H](NC(=O)[C@@H](Cc1ccc2ccccc2c1)NC(=O)[C@H](CO)NC(=O)[C@H](Cc1ccccc1)NC(=O)CNC(=O)[C@@H]1CCCN1C(=O)[C@@H]1CCCN1C(=O)[C@H](CCCNC(=N)N)NC(=O)[C@H](CCCCN)NC(=O)CCCCCNC(=O)[C@H](Cc1cc(I)c(O)c(I)c1)NC(=O)CNC)C(=O)O` [Compound 30, SarTyr(3,5-I)εAhxLys(D-βNal^7, Ile^8)desArg^9BK] (H-[Sar][Tyr(3,5-I2)][Ahx]KRPPGFS[d2Nal]I-OH; N-terminus and C-terminus assumed) were, in that order, 13 ± 1% and 2-5 times.

These data come from US7041785B1, “B1-bradykinin receptor antagonists and use thereof” (Université de Sherbrooke, priority 1996, dated 2006).
